Data: patent US20230218573A1, “INDOLE COMPOUNDS FOR THE TREATMENT OF NEURODEGENERATIVE DISEASES” (GALYAN BIO, INC., priority 2020, published 2023)
Entries after “also recorded” stand apart in the source; their conditions may differ.

Key:
[1] = test system: Htt14A2.6 PC12 cells (mHttex1-GFP); assay: mHTT aggregation by filter retardation assay in Htt14A2.6 PC12 cells; format: cell-based; details: 24 hour treatment, different concentrations
Description: Compounds from the Biacore screening were selected for measurement of aggregation in a cell model Htt14A2.6 PC12. Htt14A2.6 PC12 cells express a GFP- tagged 97Q mHtt exon 1 fusion protein (mHttex1-GFP) in the presence of ponasterone A. Htt14A2.6 PC12 cells were grown in medium containing 5 µM ponasterone A for 20 hours prior to treatment with the compounds. Htt14A2.6 PC12 cells were plated at 50~60% confluency. Compound 22 was tested at a final concentration of 80 nM, 400 nM and 10 µM in cell culture medium for 24 hours. Htt14A2.6 PC12 cells were harvested, rinsed, homogenized in cold phosphate-buffered saline containing protease inhibitor cocktail, and centrifuged at 16000 g for 30 min at 4° C. twice. About 25 µg total protein of each sample was resolved in 8% SDS PAGE, transferred onto PVDF membrane, blotted with an anti-GFP antibody, and visualized by ECL detection. mHTT aggregates were quantified from the cell lysates by filter retardation assay (Wanker, E.E., et al., Methods Enzymol (1999); 309: 375-386).

STHdh 7/7 striatal cells = assay: Cell viability of heat shocked STHdh 7/7 striatal cells; format: cell-based, mouse; details: Mus musculus, 48 hours treatment, read-out: Cell Viability striatal cells 3h heat shocked
Description: RESULTS - Table 7b summarizes the effect of the compounds on cell viability. STHdh 7/7 were heat shocked for 3 hours and treated for 48 hours with small molecule compounds. Table 2 lists the cell viability in striatal cells after 48 hours.
Effect of Compound 22 on Cell Viability of Wildtype Striatal Neurons - STHdh 7/7 cells are striatal cells that express wildtype huntingtin. These cells were cultured in the same conditions as described above for STHdh 111/111. The neurons were first heat shocked for 3 hours at 41° C. as described above. After 48 hours of treatment with the small molecule Compounds, cell viability was determined using the method described above. The “buffer” control is represents cells treated with a buffer only, without any compounds added. Some of the compounds show higher cell viability in comparison to control heat shocked STHdh 7/7 neurons with buffer and no treatment (FIG. 9).

[2] = Microsomal stability in mice; format: in vitro ADME
Exon1 Q46 = assay: Circular dichroism of Exon1 Q46, predominantly α-helical state; format: biochemical; details: increasing doses
Description: Protein samples were diluted with buffer to 7.5 µM prior to Circular Dichroism (CD) measurements. Measurements were conducted at room temperature.
Four spectra at each measurement were taken every 1 nm from 200 to 260 nm, scanning at 50 nm/min with an averaging time of 1 sec. Spectra were obtained from samples in 20 mM phosphate, pH 7.4. Ten scans were averaged for each sample spectrum
Single-wavelength readings at 222 nm were obtained. After subtraction of the Trx contribution, the α-helical content of Httex1 was estimated from its mean residue ellipticity (MREHttex1) at 222 nm. This calculation was conducted as described by Bravo-Arredondo (Bravo-Arredondo, J.M. et al., J Biol Chem. 2018 Dec 21;293(51):19613-19623).
MRE Exon-1 […] and Q46 (Mean Residue Ellipticity) was measured every 1 sec for 300 sec; the 301 readings for each sample were averaged and MRE Trx subtracted. The number of amino acids in each sample to experience a change in helicity was estimated using a previously developed helix-coil transition model, which gave the change in fraction of helicity (ΔfHelix) by the following equation: […]
where MRE Exon1 Q26 or Q46 (MREHttex1 in the formula) describes the helix-coil transition, obtained from the difference between MRE Eon1 Q26 or Q46 at 222 nm of the fusion protein at the given temperature (in our case 37° C.) and the product of MRE Trx at 222 nm at the same temperature and the fraction of residues comprised by Trx in that particular construct, and
In order to calculate an equilibrium of the two states model, percent α-helicity was calculated using the relation of MREHttex1 = 0 and -34700 (deg cm^2 dmol^-1) for 0% and 100% helicity, respectively.
The CD measurements protocol for Compound 101 was the same as outlined above except that from 206 nm - 210 nm and 220 nm - 224 nm, the step size was 0.2 nm, and the bandwidth was 1 nm.

Olig2 = assay: Nanostring gene expression in STHdh 111/111 cells: Olig2; format: cell-based, mouse; details: treated STHdh 111/111 (Q111-10), 48 h; in comparison to untreated STHdh 111/111
Description: (§1) Gene expression of certain transcripts of interest were measured using Nanostring Technology. […] Some STHdh 7/7 and STHdh 111/111 cell samples were not heat shocked and some wells were treated with Compound 22 at the indicated concentration on for 48 hours (Table 12). Some STHdh 7/7 and STHdh 111/111 cell samples were heat shocked for 3 hours some wells were treated with Compound 22 at the indicated concentration on for 48 hours (Table 13). Cells are washed with PBS, trypsinised, and gathered in a 15 ml falcon tube. After a short spin down for 3 minutes at 300 g, the cell pellet was washed with PBS once, before it was frozen down in liquid nitrogen. RNA was extracted with a standard protocol. The nCounter® Mouse Neuropathology Panel (Nanostring, Seattle) was used for gene expression analysis according to the manufacturer’s protocols.

KCNA1 = assay: Nanostring gene expression in STHdh 111/111 cells: Kcna; format: cell-based, mouse; details: treated STHdh 111/111 (Q111-10), 48 h; in comparison to untreated STHdh 111/111
Description: as §1

SMILES: Cc1[nH]c2ccc(C(=O)NCCN(C(C)C)C(C)C)cc2c1C [Compound 22]
- reduction of mHTT aggregation (filter retardation) [1]: A reduction of aggregation of Htt14A2.6 PC12 was observed; also recorded: A reduction of mHTT in Htt14A2.6 PC12 cells was observed
- viability at 10 µM (STHdh 7/7 striatal cells): 34.9%
- microsomal stability [2]: short
- effect of increasing doses on the predominantly α-helical state of Exon1 Q46 (Exon1 Q46): decreases the proportion of a predominantly α-helical state
- Olig2 expression (Olig2): doubled
- Kcna1 expression increased by (KCNA1): 68%
